Data on 39 molecules can be found in ChEMBL document CHEMBL5344426, “Imidazolone as an Amide Bioisostere in the Development of β-1,3-N-Acetylglucosaminyltransferase 2 (B3GNT2) Inhibitors” (J Med Chem, 2023).

Assay [1] concerns the target N-acetyllactosaminide beta-1,3-N-acetylglucosaminyltransferase 4 (Homo sapiens, UniProt Q9C0J1). Briefly: Inhibition of B3GNT4 (unknown origin) using Beta-lactose and UDP-GlcNAc as substrate incubated for 1.5 to 2 hrs by UDP-Glo based analysis.
Assay [2] relates to Jurkat. Briefly: Antiproliferative activity against human Jurkat cells assessed as inhibition of cell growth incubated for 3 days by SYTOX blue staining based flow cytometry analysis. As to conditions: 72 h; call rule not given here. In kind it is functional.
For assay [3], the target named is T1, N-acetyllactosaminide beta-1,3-N-acetylglucosaminyltransferase 2 (Homo sapiens, UniProt Q9NY97).
T1 sequence (Q9NY97 whole entry): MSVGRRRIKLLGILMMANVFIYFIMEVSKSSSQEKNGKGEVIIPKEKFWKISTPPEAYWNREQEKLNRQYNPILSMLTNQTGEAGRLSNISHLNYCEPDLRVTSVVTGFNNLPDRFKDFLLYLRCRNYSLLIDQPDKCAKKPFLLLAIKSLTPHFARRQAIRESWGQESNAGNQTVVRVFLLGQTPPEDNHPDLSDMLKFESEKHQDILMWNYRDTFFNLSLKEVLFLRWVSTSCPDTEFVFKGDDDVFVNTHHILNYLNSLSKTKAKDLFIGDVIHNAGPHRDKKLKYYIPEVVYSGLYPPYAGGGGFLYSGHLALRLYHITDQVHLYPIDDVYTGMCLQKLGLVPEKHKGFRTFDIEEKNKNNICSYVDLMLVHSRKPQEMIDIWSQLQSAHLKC
Briefly: Inhibition of B3GNT2 (unknown origin) using N-acetyl-lactosamine and UDP-GlcNAc as substrate incubated for 1.5 to 2 hrs by UDP-Glo based analysis.

Chain of N-acetyllactosaminide beta-1,3-N-acetylglucosaminyltransferase 4 (Q9C0J1 whole entry): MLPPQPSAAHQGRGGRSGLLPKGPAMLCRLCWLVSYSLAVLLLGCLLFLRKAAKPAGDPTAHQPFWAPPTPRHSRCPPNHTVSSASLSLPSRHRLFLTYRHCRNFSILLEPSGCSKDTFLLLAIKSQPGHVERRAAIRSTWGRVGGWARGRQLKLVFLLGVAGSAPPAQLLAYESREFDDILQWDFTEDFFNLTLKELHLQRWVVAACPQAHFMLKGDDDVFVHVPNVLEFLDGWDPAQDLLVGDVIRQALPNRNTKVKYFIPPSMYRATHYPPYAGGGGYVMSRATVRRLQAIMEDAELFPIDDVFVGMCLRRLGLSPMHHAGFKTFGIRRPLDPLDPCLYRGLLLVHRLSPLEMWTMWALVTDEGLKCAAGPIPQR

`C[C@H](NC(=O)c1ccc2[nH]c(=O)n([C@H](C)C(C)(C)C)c2c1)c1ccc(Cl)cc1`: the IC50 in assay [1] is greater than 250 µM; in assay [2] it was 47.2 µM; in assay [3] (read-out: IC50), 0.29 µM.
As to `C[C@@H](n1c(=O)[nH]c2ccc(C3=N[C@@](Cc4ccccc4)(c4cnc(C(F)(F)F)nc4)NC3=O)cc21)C(C)(C)C`, the IC50 in assay [2] amounted to 4 µM; in assay [3] (read-out: IC50) it was 0.013 µM.
Regarding `Cc1ccc([C@H](C)NC(=O)c2ccc3[nH]c(=O)n([C@H](C)C(C)(C)C)c3c2)nc1`, the IC50 is greater than 250 µM in assay [1], 8.8 µM in assay [2] and 0.093 µM in assay [3] (read-out: IC50).
Regarding `C[C@@H](n1c(=O)[nH]c2ccc(C(=O)NC(C)(C)c3ccc(Cl)cc3)cc21)C(C)(C)C`, the IC50 in assay [1] was greater than 250 µM; in assay [3] (read-out: IC50), 0.84 µM.
`C[C@@H](n1c(=O)[nH]c2ccc(C3=NC(=O)[C@](C)(c4ccc(C(F)(F)F)cn4)N3)cc21)C(C)(C)C`: the IC50 in assay [2] is 23.8 µM; in assay [3] (read-out: IC50) it was 0.03 µM.
Take `C[C@@H](n1c(=O)[nH]c2ccc(C3=N[C@@](C)(c4ccc5nccn5c4)NC3=O)cc21)C(C)(C)C`: the values for the IC50 in assay [2] and in assay [3] (read-out: IC50) were 38.2 µM and 0.37 µM, respectively.
For the molecule `C[C@@H](n1c(=O)[nH]c2ccc(C3=NC(=O)[C@@](C)(c4ccc(Cl)cn4)N3)cc21)C(C)(C)C`, the IC50 in assay [3] (read-out: IC50) was determined as 0.51 µM.
With `C[C@@H](n1c(=O)[nH]c2ccc(C3=NC(=O)[C@](C)(c4ccc(Cl)cn4)N3)cc21)C(C)(C)C`, the IC50 in assay [2] was found to be 8.1 µM; in assay [3] (read-out: IC50), 0.066 µM.
For the molecule `C[C@H](NC(=O)c1ccc2[nH]c(=O)n([C@H](C)C(C)(C)C)c2c1)c1cnc(Cl)nc1`, the IC50 in assay [1] was greater than 250 µM; in assay [2], 15.3 µM; in assay [3] (read-out: IC50) it was 0.076 µM.
Taken in the same sequence, the figures for `C[C@H](NC(=O)c1ccc2[nH]c(=O)n([C@H](C)C(C)(C)C)c2c1)c1ccc(Br)cn1` were 169 µM, 12.5 µM and 0.1 µM.
`Cc1ncc([C@H](C)NC(=O)c2ccc3[nH]c(=O)n([C@H](C)C(C)(C)C)c3c2)cn1`: the results for the IC50 in assay [1], in assay [2] and in assay [3] (read-out: IC50) were greater than 250 µM, 22.4 µM and 0.12 µM, respectively.
With `C[C@@H](n1c(=O)[nH]c2ccc(C3=C[C@@](C)(c4cnc(C(F)(F)F)nc4)OC3=O)cc21)C(C)(C)C`, the IC50 in assay [2] is 5.6 µM; in assay [3] (read-out: IC50), 0.028 µM.
Take `C[C@@H](NC(=O)c1ccc2[nH]c(=O)n([C@H](C)C(C)(C)C)c2c1)c1ccc(Cl)cc1`: the results for the IC50 in assay [1] and in assay [3] (read-out: IC50) were greater than 250 µM and 2.72 µM, respectively.
Turning to `C[C@@H](n1c(=O)[nH]c2ccc(C(=O)NCc3ccc(Cl)cc3)cc21)C(C)(C)C`, the IC50 was greater than 250 µM in assay [1], 67.8 µM in assay [2] and 0.61 µM in assay [3] (read-out: IC50).
For `C[C@H](NC(=O)c1ccc2[nH]c(=O)n([C@H](C)C(C)(C)C)c2c1)c1ccc(Cl)cn1`, the IC50 was greater than 250 µM in assay [1], 32 µM in assay [2] and 0.23 µM in assay [3] (read-out: IC50).
`C[C@@H](n1c(=O)[nH]c2ccc(C3=N[C@@](C)(c4cc5ccccc5[nH]4)NC3=O)cc21)C(C)(C)C`: the IC50 came out at 9.9 µM in assay [2] and 0.055 µM in assay [3] (read-out: IC50).
Turning to `CC(C)NC(=O)c1ccc2[nH]c(=O)n([C@H](C)C(C)(C)C)c2c1`, the IC50 in assay [1] was greater than 250 µM; in assay [3] (read-out: IC50) it was 2.9 µM.
For `C[C@H](NC(=O)c1ccc2[nH]c(=O)n([C@H](C)C(C)(C)C)c2c1)c1cnc(Cl)cn1`, the IC50 was greater than 250 µM in assay [1], 23.5 µM in assay [2] and 0.89 µM in assay [3] (read-out: IC50).
On to `C[C@@H](n1c(=O)[nH]c2ccc(C3=N[C@]4(CCc5cc(Br)ccc54)NC3=O)cc21)C(C)(C)C`, for which the IC50 in assay [2] stood at 6.4 µM; in assay [3] (read-out: IC50), 0.053 µM.
For `Cc1[nH]c2ccc([C@]3(C)N=C(c4ccc5[nH]c(=O)n([C@H](C)C(C)(C)C)c5c4)C(=O)N3)cc2c1C`, the IC50 in assay [3] (read-out: IC50) was 1.01 µM.
Take `C[C@@H](n1c(=O)[nH]c2ccc(C3=N[C@@](C)(c4cnc(C(F)(F)F)nc4)NC3=O)cc21)C(C)(C)C`: the IC50 in assay [2] came to 3.8 µM; in assay [3] (read-out: IC50), 0.024 µM.
As for `C[C@H](NC(=O)c1ccc2[nH]c(=O)n([C@H](C)C(C)(C)C)c2c1)c1ccc(C(F)(F)F)cn1`, the IC50 in assay [1] was greater than 250 µM; in assay [2], 66.1 µM; in assay [3] (read-out: IC50) it was 0.23 µM.
In the case of `C[C@@H](n1c(=O)[nH]c2ccc(C3=N[C@@](c4cccnc4)(c4nnc[nH]4)NC3=O)cc21)C(C)(C)C`, the IC50 was greater than 85 µM in assay [2] and 0.026 µM in assay [3] (read-out: IC50).
On to `C[C@@H](n1c(=O)[nH]c2ccc(C3=N[C@](c4ccc(Cl)nc4)(c4ccccn4)NC3=O)cc21)C(C)(C)C`, for which the IC50 in assay [2] turned out to be 5.5 µM; in assay [3] (read-out: IC50), 0.039 µM.
For the molecule `C[C@@H](n1c(=O)[nH]c2ccc(C3=NC(=O)[C@](C)(c4ncc(Cl)cn4)N3)cc21)C(C)(C)C`, the IC50 in assay [2] was found to be 16.2 µM; in assay [3] (read-out: IC50), 0.082 µM.
`CC(C)Cn1c(=O)[nH]c2ccc(C(=O)O)cc21`: the IC50 in assay [1] is greater than 250 µM; in assay [3] (read-out: IC50), 9.1 µM.
For the molecule `C[C@@H](n1c(=O)[nH]c2ccc(C3=NC(=O)[C@](C)(c4ccccc4)N3)cc21)C(C)(C)C`, the values for the IC50 in assay [1], in assay [2] and in assay [3] (read-out: IC50) were greater than 250 µM, greater than 85 µM and 0.6 µM, respectively.
For `C[C@@H](n1c(=O)[nH]c2ccc(C(=O)O)cc21)C(C)(C)C`, the IC50 in assay [1] is 122 µM; in assay [2], greater than 85 µM; in assay [3] (read-out: IC50), 0.26 µM.
Regarding `Cc1ccc([C@]2(C)NC(c3ccc4[nH]c(=O)n([C@H](C)C(C)(C)C)c4c3)=NC2=O)nc1`, the IC50 in assay [2] turned out to be 13.8 µM; in assay [3] (read-out: IC50), 0.096 µM.
In the case of `C[C@@H](n1c(=O)[nH]c2ccc(C3=NC(c4ccc(Cl)cn4)(c4ccc(Cl)cn4)NC3=O)cc21)C(C)(C)C`, the IC50 in assay [2] came to 37.1 µM; in assay [3] (read-out: IC50), 0.2 µM.
Turning to `C[C@@H](n1c(=O)[nH]c2ccc(C(=O)Nc3ccccc3)cc21)C(C)(C)C`, the figures for the IC50 in assay [1], in assay [2] and in assay [3] (read-out: IC50) were greater than 250 µM, 38.8 µM and 0.82 µM, respectively.
`Cc1[nH]c2cc(NC(=O)c3ccc4[nH]c(=O)n([C@H](C)C(C)(C)C)c4c3)ccc2c1C`: the IC50 in assay [1] was 165 µM; in assay [2], 3.6 µM; in assay [3] (read-out: IC50) it was 0.06 µM.
For the molecule `Cc1ncc([C@]2(C)NC(c3ccc4[nH]c(=O)n([C@H](C)C(C)(C)C)c4c3)=NC2=O)cn1`, the figures for the IC50 in assay [1], in assay [2] and in assay [3] (read-out: IC50) were greater than 250 µM, 4.2 µM and 0.024 µM, respectively.
With `C[C@@H](n1c(=O)[nH]c2ccc(C3=N[C@@](C)(c4ccc(Cl)cn4)NC3=O)cc21)C(C)(C)C`, the IC50 was 8.2 µM in assay [2] and 0.069 µM in assay [3] (read-out: IC50).
Take `C[C@@H](n1c(=O)[nH]c2ccc(C3=NOC(C)(c4ccccc4)N3)cc21)C(C)(C)C` (stereo not given in full): the IC50 worked out at 28 µM in assay [2] and 0.9 µM in assay [3] (read-out: IC50).
The matching figures for `Cc1ccc([C@]2(C)NC(c3ccc4[nH]c(=O)n([C@H](C)C(C)(C)C)c4c3)=NC2=O)cn1`: 5.1 µM and 0.029 µM.
For the molecule `C[C@@H](n1c(=O)[nH]c2ccc(C3=NC(C)(c4cnc(C(F)(F)F)nc4)C(=O)O3)cc21)C(C)(C)C` (stereo not given in full), the IC50 result in assay [3] is listed as “Not Active”.
Take `C[C@H](NC(=O)c1ccc2[nH]c(=O)n([C@H](C)C(C)(C)C)c2c1)c1ncc(Cl)cn1`: the IC50 in assay [1] is greater than 250 µM; in assay [2], 29.2 µM; in assay [3] (read-out: IC50), 0.43 µM.
In the case of `C[C@@H](n1c(=O)[nH]c2ccc(C(=O)N3CCOCC3)cc21)C(C)(C)C`, the IC50 in assay [1] is greater than 250 µM; in assay [3] (read-out: IC50), 26.6 µM.
